{
  "source": "patent US6313090A",
  "about": "“Methods for treating parasitic infection using thiopeptides” (The United States of America as represented by the …, priority 2000, dated 2001)",
  "tested_on": "MDBKF5D2 cell monolayers",
  "test": "Toxicity testing assay (MTS/PMS, OD 490 nm)",
  "type": "cell-based",
  "protocol": "(§1) Toxicity Testing Assay. 200 μl of medium containing drug at the above-mentioned concentrations and positive control preparations [paromomycin/DMSO (2 mg/ml/0.2%)] were introduced into two wells of a 96 well plate containing confluent MDBKF5D2 cell monolayers (ATCC accession number CCL-22) infected with intact C. parvum GCH1 oocysts (5.0×10^4 per well) (43) and two wells without monolayers. The drug was incubated on the monolayers at 37° C. and 8% CO2. At 48 hours, MTS (Owen's solution) and PMS were added to each well at concentrations of 333 μg/ml and 25 μM respectively. The plate was returned to the incubator in the dark to develop for two hours. At two hours, 100 μl of each supernatant was transferred to a new microtiter plate and the optical density (OD) was read in an ELISA plate reader at 490 nm.\n(§2) Percent toxicity was calculated by subtracting the mean drug OD from the medium OD, divided by the medium OD, all of which was then multiplied by 100, as shown in the equation below. Cytotoxicity scores were assigned as follows: 0-5% toxicity=0, 6-25% toxicity=1, 26-50% toxicity=2, 51-75% toxicity=3, and 76-100% toxicity=4. As a standard, cytotoxicity scores of 0 or, 1 were considered acceptable levels of toxicity. Toxicity scores of 2, 3, or 4 were considered as high levels of toxicity to the cell monolayer. [formula]\nas §1, with “containing drugs” for “containing drug”, “monolayers” for “monolayers (ATCC accession number CCL-22)”, “well)” for “well) (43)”, “and 25μM” for “and 25 μM”\nas §2, with “or” for “or,”\nas §1, with “monolayers” for “monolayers (ATCC accession number CCL-22)”, “well)” for “well) (43)”, “25μM” for “25 μM”",
  "key": {"[1]": {"details": "Table 2, 2 mg/ml, listed as PRM/DMSO"}, "[2]": {"details": "Table 4 Washed at 4 hours, 250 μg/ml"}, "[3]": {"details": "Table 4 Washed at 4 hours, 500 μg/ml"}, "[4]": {"details": "Table 4 Washed at 4 hours, 1000 μg/ml"}, "[5]": {"details": "Table 4 Washed at 4 hours, 2000 μg/ml"}, "[6]": {"details": "Table 5, 2000 μg/ml, drug added at 0 hrs"}, "[7]": {"details": "Table 5, 2000 μg/ml, drug added at 2 hrs"}, "[8]": {"details": "Table 5, 2000 μg/ml, drug added at 4 hrs"}, "[9]": {"details": "Table 5, 2000 μg/ml, drug added at 8 hrs"}, "[10]": {"details": "Table 5, 2000 μg/ml, drug added at 24 hrs"}},
  "data": [
    {"smiles": "NC[C@@H]1O[C@H](O[C@H]2[C@@H](O)[C@H](O[C@@H]3[C@@H](O)[C@H](N)C[C@H](N)[C@H]3O[C@H]3O[C@H](CO)[C@@H](O)[C@H](O)[C@H]3N)O[C@@H]2CO)[C@H](N)[C@@H](O)[C@@H]1O", "note": "[PRM, paromomycin]", "values": [
      {"measurement": "Tox. O.D.", "setting": "Table 1, 2000 μg/ml", "value": ".868"},
      {"measurement": "Toxicity Percent", "setting": "Table 1, 2000 μg/ml", "value": 21.09, "unit": "%"},
      {"measurement": "Toxicity Score", "setting": "Table 1, 2000 μg/ml", "value": "1 (6-25% toxicity=1)"},
      {"measurement": "Tox. O.D.", "setting": "Table 2, 2 mg/ml", "value": ".954"},
      {"measurement": "Toxicity Percent", "setting": "Table 2, 2 mg/ml", "value": -4.38, "unit": "%"},
      {"measurement": "Toxicity Score", "setting": "Table 2, 2 mg/ml", "value": "0 (0-5% toxicity=0)"},
      {"measurement": "Tox. O.D.", "setting": "[1]", "value": ".963"},
      {"measurement": "Toxicity Percent", "setting": "[1]", "value": 4.37, "unit": "%"},
      {"measurement": "Tox. O.D.", "setting": "Table 3 Unwashed, 250 μg/ml", "value": 1.121},
      {"measurement": "Toxicity Percent", "setting": "Table 3 Unwashed, 250 μg/ml", "value": -7.53, "unit": "%"},
      {"measurement": "Toxicity Score", "setting": "Table 3 Unwashed, 250 μg/ml", "value": "0 (0-5% toxicity=0)"},
      {"measurement": "Tox. O.D.", "setting": "Table 3 Unwashed, 500 μg/ml", "value": 1.019},
      {"measurement": "Toxicity Percent", "setting": "Table 3 Unwashed, 500 μg/ml", "value": 2.30, "unit": "%"},
      {"measurement": "Toxicity Score", "setting": "Table 3 Unwashed, 500 μg/ml", "value": "0 (0-5% toxicity=0)"},
      {"measurement": "Tox. O.D.", "setting": "Table 3 Unwashed, 1000 μg/ml", "value": ".963"},
      {"measurement": "Toxicity Percent", "setting": "Table 3 Unwashed, 1000 μg/ml", "value": 7.67, "unit": "%"},
      {"measurement": "Toxicity Score", "setting": "Table 3 Unwashed, 1000 μg/ml", "value": "1 (6-25% toxicity=1)"},
      {"measurement": "Tox. O.D.", "setting": "Table 3 Unwashed, 2000 μg/ml", "value": 1.061},
      {"measurement": "Toxicity Percent", "setting": "Table 3 Unwashed, 2000 μg/ml", "value": -1.73, "unit": "%"},
      {"measurement": "Toxicity Score", "setting": "Table 3 Unwashed, 2000 μg/ml", "value": "0 (0-5% toxicity=0)"},
      {"measurement": "Tox. O.D.", "setting": "[2]", "value": 1.121},
      {"measurement": "Toxicity Percent", "setting": "[2]", "value": -7.68, "unit": "%"},
      {"measurement": "Toxicity Score", "setting": "[2]", "value": "0 (0-5% toxicity=0)"},
      {"measurement": "Tox. O.D.", "setting": "[3]", "value": 1.019},
      {"measurement": "Toxicity Percent", "setting": "[3]", "value": 2.16, "unit": "%"},
      {"measurement": "Toxicity Score", "setting": "[3]", "value": "0 (0-5% toxicity=0)"},
      {"measurement": "Tox. O.D.", "setting": "[4]", "value": ".963"},
      {"measurement": "Toxicity Percent", "setting": "[4]", "value": 7.54, "unit": "%"},
      {"measurement": "Toxicity Score", "setting": "[4]", "value": "1 (6-25% toxicity=1)"},
      {"measurement": "Tox. O.D.", "setting": "[5]", "value": 1.061},
      {"measurement": "Toxicity Percent", "setting": "[5]", "value": -1.87, "unit": "%"},
      {"measurement": "Toxicity Score", "setting": "[5]", "value": "0 (0-5% toxicity=0)"},
      {"measurement": "Tox. O.D.", "setting": "[6]", "value": ".962"},
      {"measurement": "Toxicity Percent", "setting": "[6]", "value": 16.17, "unit": "%"},
      {"measurement": "Toxicity Score", "setting": "[6]", "value": "1 (6-25% toxicity=1)"},
      {"measurement": "Tox. O.D.", "setting": "[7]", "value": ".878"},
      {"measurement": "Toxicity Percent", "setting": "[7]", "value": 23.49, "unit": "%"},
      {"measurement": "Toxicity Score", "setting": "[7]", "value": "1 (6-25% toxicity=1)"},
      {"measurement": "Tox. O.D.", "setting": "[8]", "value": ".923"},
      {"measurement": "Toxicity Percent", "setting": "[8]", "value": 19.56, "unit": "%"},
      {"measurement": "Toxicity Score", "setting": "[8]", "value": "1 (6-25% toxicity=1)"},
      {"measurement": "Tox. O.D.", "setting": "[9]", "value": ".871"},
      {"measurement": "Toxicity Percent", "setting": "[9]", "value": 24.05, "unit": "%"},
      {"measurement": "Toxicity Score", "setting": "[9]", "value": "1 (6-25% toxicity=1)"},
      {"measurement": "Tox. O.D.", "setting": "[10]", "value": ".850"},
      {"measurement": "Toxicity Percent", "setting": "[10]", "value": 25.93, "unit": "%"},
      {"measurement": "Toxicity Score", "setting": "[10]", "value": "1 (6-25% toxicity=1)"},
      {"measurement": "Tox. O.D.", "setting": "Table 6, 2 mg/ml", "value": 1.273},
      {"measurement": "Toxicity Percent", "setting": "Table 6, 2 mg/ml", "value": 22.74, "unit": "%"},
      {"measurement": "Toxicity Score", "setting": "Table 6, 2 mg/ml", "value": "1 (6-25% toxicity=1)"}
    ]}
  ]
}
